# Data taken from patent US6777445B2, “Fullerene pharmaceutical compositions for preventing or treating disorders” (priority 2000, dated 2004).
# Test system: E. coli
# Experiment: E. coli-induced meningitis death, C60(C3) given immediately before E. coli (Test 1)
# Format: in vivo, B6 mice
# Details: 6 mg/kg i.p. C60(C3), again at 24 and 48 hours
# Procedure: E. coli ATCC 10536 was cultured in Luria-Bertain (LB) broth (1% NaCl, 1% tryptone, 0.5% yeast extract) for 12 hours and was subcultured in fresh medium for another 3 h. The concentration of E. coli was determined with a spectrophotometer (Beckman Instrument, Somerset, N.J.), with an optical density at 600 nm of 1 equal to […] (Wang, S. D., et al., J. Immunol. 152:5014-5021). For the induction of meningitis, groups of three to four mice were given intracerebral injections directly into the temporal area of a volume of 5×10^5 E. coli cells diluted in saline. The 100% lethal dose (LD100) by intracerebral injection in B6 mice is 5×10^5 E. coli cells. The animals were observed every 12 hours for a total of 6 days. In some experiments, the brains were aseptically removed and were homogenized with 3% gelatin (Difco Laboratories, Detroit, Mich.) in PBS. The samples were serial diluted, poured in agar plates, and incubated at 37° C. overnight. The number of colony forming units (CFU) of E. coli was quantitated and was expressed as the mean±standard deviation per mouse. […] The growth curve of E. coli was determined in LB broth to evaluate the direct antimicrobial activity of C60(C3).
# Groups of 10 B6 mice were inoculated intracerebrally with 5×10^5 E. coli per mouse. […] The mice were monitored for death every 12 hours for 6 days.
compound,measurement,value
C[C@@H]1C[C@H]2[C@@H]3CCC4=CC(=O)C=C[C@]4(C)[C@@]3(F)[C@@H](O)C[C@]2(C)[C@@]1(O)C(=O)CO [dexamethasone],mice protected from E. coli-induced death,20%
